Reference: ChEMBL document CHEMBL3046704, “Control of Muhlenbergia frondosa (wirestem muhly) with post-emergence sulfonylurea herbicides in maize (Zea mays)” (Crop Prot, 2007)

Key:
Muhlenbergia [1] = experiment: Post-emergence herbicidal activity against Muhlenbergia frondosa at 35 g a.i./ha measured after 56 days in presence of 28% UAN relative to untreated-control; format: functional
Muhlenbergia [2] = experiment: Post-emergence herbicidal activity against Muhlenbergia frondosa assessed as increase in maize yield at 35 g a.i./ha in presence of 28% UAN relative to untreated-control; format: functional
Muhlenbergia [3] = experiment: Post-emergence herbicidal activity against Muhlenbergia frondosa assessed as reduction in dry weight at 35 g a.i./ha measured after 56 days in presence of 28% UAN relative to untreated-control; format: functional; parameters: scale not given: the % may be the effect or the level left
Muhlenbergia [4] = experiment: Post-emergence herbicidal activity against Muhlenbergia frondosa assessed as reduction in density at 35 g a.i./ha measured after 56 days in presence of 28% UAN relative to untreated-control; format: functional; parameters: scale not given: the % may be the effect or the level left
Muhlenbergia [5] = experiment: Post-emergence herbicidal activity against Muhlenbergia frondosa at 35 g a.i./ha measured after 28 days in presence of 28% UAN relative to untreated-control; format: functional
Zea mays [6] = experiment: Phytotoxicity against Zea mays (maize) crop assessed as crop injury at 35 g a.i./ha measured after 7 days in presence of 28% UAN relative to control; format: organism-based; details: in vivo, 168 h
Muhlenbergia [7] = experiment: Post-emergence herbicidal activity against Muhlenbergia frondosa at 25 g a.i./ha measured after 56 days in presence of Agral 90 relative to untreated-control; format: functional
Elymus repens [8] = experiment: Post-emergence herbicidal activity against Elymus repens (couch grass) relative to control; format: functional
Elymus repens [9] = experiment: Post-emergence herbicidal activity against Elymus repens (couch grass) at 35 g/ha relative to control; format: functional
Muhlenbergia [10] = experiment: Post-emergence herbicidal activity against Muhlenbergia frondosa assessed as increase in maize yield at 25 g a.i./ha in presence of Agral 90 relative to untreated-control; format: functional
Muhlenbergia [11] = experiment: Post-emergence herbicidal activity against Muhlenbergia frondosa assessed as reduction in dry weight at 25 g a.i./ha measured after 56 days in presence of Agral 90 relative to untreated-control; format: functional; parameters: scale not given: the % may be the effect or the level left
Muhlenbergia [12] = experiment: Post-emergence herbicidal activity against Muhlenbergia frondosa assessed as reduction in density at 25 g a.i./ha measured after 56 days in presence of Agral 90 relative to untreated-control; format: functional; parameters: scale not given: the % may be the effect or the level left
Muhlenbergia [13] = experiment: Post-emergence herbicidal activity against Muhlenbergia frondosa at 25 g a.i./ha measured after 28 days in presence of Agral 90 relative to untreated-control; format: functional
Zea mays [14] = experiment: Phytotoxicity against Zea mays (maize) crop assessed as crop injury at 25 g a.i./ha measured after 7 days in presence of Agral 90 relative to control; format: organism-based; details: in vivo, 168 h
Elymus repens [15] = experiment: Post-emergence herbicidal activity against Elymus repens (couch grass) at 42 g/ha relative to control; format: functional
Muhlenbergia [16] = experiment: Post-emergence herbicidal activity against Muhlenbergia frondosa assessed as maize yield at 25 g a.i./ha in presence of Agral 90 (reference value: 9.64 tons/ha); format: functional
Muhlenbergia [17] = experiment: Post-emergence herbicidal activity against Muhlenbergia frondosa assessed as dry weight at 25 g a.i./ha measured after 56 days in presence of Agral 90 (reference value: 102 g); format: functional
Muhlenbergia [18] = experiment: Post-emergence herbicidal activity against Muhlenbergia frondosa assessed as number of plants at 25 g a.i./ha measured after 56 days in presence of Agral 90 (reference value: 41 /m2); format: functional
Muhlenbergia [19] = experiment: Post-emergence herbicidal activity against Muhlenbergia frondosa at 15 g a.i./ha measured after 56 days in presence of Agral 90 relative to untreated-control; format: functional
Muhlenbergia [20] = experiment: Post-emergence herbicidal activity against Muhlenbergia frondosa assessed as increase in maize yield at 15 g a.i./ha in presence of Agral 90 relative to untreated-control; format: functional
Muhlenbergia [21] = experiment: Post-emergence herbicidal activity against Muhlenbergia frondosa assessed as dry weight at 15 g a.i./ha measured after 56 days in presence of Agral 90 (reference value: 102 g); format: functional
Muhlenbergia [22] = experiment: Post-emergence herbicidal activity against Muhlenbergia frondosa assessed as number of plants at 15 g a.i./ha measured after 56 days in presence of Agral 90 (reference value: 41 /m2); format: functional
Muhlenbergia [23] = experiment: Post-emergence herbicidal activity against Muhlenbergia frondosa at 15 g a.i./ha measured after 28 days in presence of Agral 90 relative to untreated-control; format: functional
Zea mays [24] = experiment: Phytotoxicity against Zea mays (maize) crop assessed as crop injury at 15 g a.i./ha measured after 7 days in presence of Agral 90 relative to control; format: organism-based; details: in vivo, 168 h

COc1cc(OC)nc(NC(=O)NS(=O)(=O)c2cc(NC=O)ccc2C(=O)N(C)C)n1 [FORAMSULFURON]
Activity (Muhlenbergia [1]): 89%
Activity (Muhlenbergia [2]): 17%
Activity (Muhlenbergia [3]): 94%
Activity (Muhlenbergia [4]): 76%
Activity (Muhlenbergia [5]): 80%
Activity (Zea mays [6]): 1.1%

COc1cc(OC)nc(NC(=O)NS(=O)(=O)c2ncccc2C(=O)N(C)C)n1 [NICOSULFURON]
Activity (Muhlenbergia [7]): 32%
Activity (Elymus repens [8]): 89%
Activity (Elymus repens [9]): 97%
Activity (Muhlenbergia [10]): 22%
Activity (Muhlenbergia [11]): 70%
Activity (Muhlenbergia [12]): 44%
Activity (Muhlenbergia [13]): 49%
Activity (Zea mays [14]): 1.1%

O=C(Nc1nc(OC(F)F)cc(OC(F)F)n1)NS(=O)(=O)c1ccccc1C(=O)O [PRIMISULFURON]
Activity (Muhlenbergia [7]): 12%
Activity (Elymus repens [8]): 80%
Activity (Elymus repens [15]): 94%
Crop_yield (Muhlenbergia [16]): 10.1 tons/ha
Activity (Muhlenbergia [17]): 78 g
Activity (Muhlenbergia [18]): 39 /m2
Activity (Muhlenbergia [13]): 32%
Activity (Zea mays [14]): 1.2%

CCS(=O)(=O)c1cccnc1S(=O)(=O)NC(=O)Nc1nc(OC)cc(OC)n1 [RIMSULFURON]
Activity (Muhlenbergia [19]): 14%
Activity (Elymus repens [8]): 63%
Activity (Muhlenbergia [20]): 11%
Activity (Muhlenbergia [21]): 72 g
Activity (Muhlenbergia [22]): 44 /m2
Activity (Muhlenbergia [23]): 32%
Activity (Zea mays [24]): 1.2%
